# According to PubChem BioAssay AID2423 (Broad Institute, 2010):
# Inconclusive results are not listed. Activity calls are given as the source filed them. How the calls were made is not given here.
# Test system: C. albicans CaCi-8 + fluconazole, Alamar Blue growth, 48 h
# Experiment: resistant C. albicans growth inhibition with fluconazole, dose response, CaCi-8 strain, Alamar Blue fluorescence (AID 2423)
row,SMILES,EC50
1,CC(C)=CCc1c2c(c(O)c3c(=O)c4c(oc13)-c1cc(O)c(O)cc1OC4C=C(C)C)C=CC(C)(C)O2 (configuration not stated),13000 nM
2,Cn1c(-c2c(N)n(CCc3ccccc3)c3nc4ccccc4nc23)nc2ccccc21,6180 nM
3,CC1(C)CC(N=Cc2c(O)n(Cc3ccc4c(c3)OCO4)c(=O)c3ccccc23)CC(C)(C)N1,3850 nM
4,Cc1cc(C)c2nc(NNC(=O)c3cc(-c4cccs4)nc4ccccc34)sc2c1,804 nM
5,O=C(N/N=C/c1ccc(O)c2ncccc12)c1cccc(Br)c1,1200 nM
6,C[C@H]([C@@H](N)C(=O)N[C@@H](C(=O)O)[C@@H]1O[C@H](n2ccc(=O)[nH]c2=O)[C@@H](O)[C@H]1O)[C@@H](O)c1ccc(O)cn1,3160 nM
7,COc1ccc(-n2c(-c3ccc(Br)cc3)c[n+]3c2SC(C)C3)cc1 (configuration not stated),6770 nM
8,CCCCCCCSc1nc(N)cc(=O)[nH]1,5940 nM
9,CCCCOc1ccc(C(=O)NNC(=S)NC(=O)CC)cc1,858 nM
10,Cn1c(O)c(/C=N/NC(=O)c2cc3ccccc3cc2O)c2ccccc21,5350 nM
11,CCCCn1c(=O)[nH]c(=O)c2c1nc(-c1ccc(-c3ccccc3Br)o1)n2CC,> 15000 nM (inactive)
12,O=S(=O)(O)c1cccc2c(N=Nc3ccc(O)c4ncccc34)cccc12,> 16000 nM (inactive)
13,[O-][N+]1=c2ccc(Nc3ccccc3)cc2=NC12CCCCC2,750 nM
14,CC(=O)N(Cc1ccc(F)cc1)C1=C(NCc2ccccc2)C(=O)c2ccccc2C1=O,596 nM
15,Brc1ccc(N/N=C(/N=Nc2nn[nH]n2)c2ccccc2)cc1,5600 nM
16,CCCC(=O)NC(c1ccc(Cl)cc1)c1ccc2cccnc2c1O (configuration not stated),543 nM
17,O=C(OCn1ncc(Cl)c(Cl)c1=O)c1ccc(F)cc1,> 16000 nM (inactive)
18,CCCOC(c1ccccc1)(c1ccc(C(F)(F)F)cc1)C(Oc1nc(C)cc(C)n1)C(=O)O (configuration not stated),6470 nM
19,Oc1ccccc1C(Nc1nccs1)c1ccc2cccnc2c1O (configuration not stated),2730 nM
20,CCCCOP(=O)(c1ccc(N(C)C)cc1)C(O)c1ccccc1F (configuration not stated),4660 nM
21,O=C(Oc1c(CN2CCOCC2)cc(Cl)c2cccnc12)c1ccc(F)cc1,3110 nM
22,Oc1ccc(CN2CCCCC2)c2cccnc12,16100 nM
23,O=C(Nc1nc(-c2ccccn2)cs1)c1cc2ccccc2o1,903 nM

row,SMILES,EC50
1,Cc1cc(Nc2ccc(Cl)cc2)nc(NCc2ccccc2)n1,5160 nM
2,O=C(CSc1ccc(Cl)cc1)Nc1nnc(-c2ccco2)o1,2720 nM
3,O=S1(=O)N=C(Nc2ccc(N3CCOCC3)cc2)c2ccccc21,> 16000 nM (inactive)
4,Cc1ccc(-c2cn(-c3ccccc3)c3[n+]2CCCS3)cc1,10300 nM
5,Cc1ccc(S(=O)(=O)CC2CSc3nc4ccccc4n32)cc1 (configuration not stated),2520 nM
6,O=Cc1cc(N=Nc2ccccc2Cl)ccc1O,6390 nM
7,Cc1c(N=NC2=C(O)CC(C)(C)CC2=O)c(=O)n(-c2ccccc2)n1C,14000 nM
8,Cc1cc(C)c(S(=O)(=O)Nc2cccc(-n3cnnn3)c2)c(C)c1,13000 nM
9,CC1(C)COCN1S(=O)(=O)c1ccc(C(=O)Nc2nnc(-c3ccc(Cl)s3)o2)cc1,484 nM
10,COc1ccnc(N2CCN(c3ccccc3)CC2)c1C#N,859 nM
11,CC[n+]1cc(C)ccc1/C=C/c1ccc(N(C)C)cc1,1410 nM
12,Cc1cccc(N2CCN(c3nc(C)cc(C)c3C#N)CC2C)c1 (configuration not stated),> 16000 nM (inactive)
13,Cc1ccc(C)c(SCC(=O)Nc2nnc(-c3ccccc3)o2)c1,2240 nM
14,CCOC(=O)c1c(-c2ccccc2)oc2cc(Br)c(O)c(C=O)c12,1440 nM
15,COc1ccnc(Oc2cccc(C(F)(F)F)c2)c1C(=O)N/C=N/OCc1ccccc1F,> 15000 nM (inactive)
16,CCc1ccc(OCC(=O)NNC(=S)NC(=O)C2CCCCC2)c(Br)c1,1790 nM
17,CC(=O)Nc1cccc(-c2csc(Nc3ccc(C)cn3)n2)c1,2260 nM
18,COc1ccc(/C=N/NC(=O)c2cc(O)c(O)c(O)c2)cc1Cn1cc([N+](=O)[O-])cn1,1440 nM
19,O=C(O)COc1ccccc1C(Nc1cccnc1)c1cc(Cl)c2cccnc2c1O (configuration not stated),9890 nM
20,Oc1c(C(c2ccccn2)N2CCOCC2)ccc2cccnc12 (configuration not stated),4860 nM
21,CCOc1ccc(N=Nc2ccc(O)c3ncccc23)cc1,1150 nM
22,C(#Cc1ccccc1)C[N+]1(CC#Cc2ccccc2)CCCCC1,10500 nM
23,Cc1ccc(C)c(NC(=S)NNC(=O)c2csc(C)c2)c1,704 nM

row,SMILES,EC50
1,O=C(O)c1cnc(-c2ccccc2)nc1Sc1ccc(Cl)cc1,> 15000 nM (inactive)
2,Nc1ncc(Br)cc1S(=O)(=O)Nc1cc(C(F)(F)F)cc(C(F)(F)F)c1,918 nM
3,OCc1ccnc2c(O)cccc12,> 16000 nM (inactive)
4,O=c1c2ccc(Cl)cc2nc(-c2ccc([N+](=O)[O-])cc2)n1O,1100 nM
5,Cc1nc(-n2[nH]c3c(c2=O)CCCC3)[nH]c(=O)c1Cc1ccccc1,541 nM
6,CCc1ccccc1NC(=S)NNC(=O)c1ccccc1Cl,823 nM
7,Cc1cc(Nc2ccccc2)nc(NCc2ccccc2)n1,3350 nM
8,O=C(NC(Cc1ccccc1)C(=O)NCc1ccccn1)c1ccco1 (configuration not stated),> 15000 nM (inactive)
9,Cc1ccc(C)c(/C=C/C(=O)c2ccccc(=O)c2O)c1,1990 nM
10,Cc1ccc(C)c(NC(=S)NNC(=O)c2csc(C(C)C)c2)c1,1210 nM
11,O=c1[nH]c(Nc2ccc3c(c2)OCCO3)nnc1Cc1ccccc1,> 16000 nM (inactive)
12,CNC(=S)N/N=C/c1ccc(-c2ccc(Cl)c([N+](=O)[O-])c2)o1,1940 nM
13,CC(=O)Oc1c(-c2ccc(Br)o2)oc2ccccc2c1=O,4200 nM
14,O=C(CCS(=O)(=O)c1ccccc1)Nc1ncc([N+](=O)[O-])s1,> 15000 nM (inactive)
15,COc1ccc(-c2nnc(NC(=O)c3cc(Cl)ccc3Cl)o2)cc1,1120 nM
16,CCCCCCCCC(=O)NNC(=O)c1c(O)c2ccccc2n(CC)c1=O,1910 nM
17,Cc1cc(C)cc(OCC(=O)NNC(=S)NC(=O)C2CC2)c1,646 nM
18,Cc1cc(Oc2ccccc2)nc(-c2ccccc2O)n1,> 15000 nM (inactive)
19,COc1ccc(C(=O)NCCN2CCOCC2)c(OC)c1OC,> 15000 nM (inactive)
20,Cc1ccc(C(=O)Nc2nc3ccccc3c(=O)s2)cc1,458 nM
21,O=c1[nH]c(=S)[nH]nc1Cc1ccc(Cl)c(Cl)c1,1400 nM
22,CCC1=NN(C(=O)c2ccccc2O)C(O)(c2ccccc2)C1 (configuration not stated),7370 nM
23,O=C(c1ccc(C(=O)N2CCN(c3ccccc3F)CC2)nc1)N1CCN(c2ccccc2F)CC1,> 16000 nM (inactive)

row,SMILES,EC50
1,Oc1c(Br)cc(Br)cc1Oc1ccc(Br)cc1Br,1760 nM
2,Cc1ccc(NCc2ccc(O)c3ncccc23)cc1C,13400 nM
3,COc1ccc(C(=O)NC(=S)NNC(=O)c2cnccn2)cc1,3540 nM
4,COc1ccc(/C=C(/NC(=O)c2ccccc2)c2nc3ccc(Cl)cc3[nH]2)cc1OC,2660 nM
5,COc1cccc(C(=O)Oc2c(CN3CCOCC3)cc(Cl)c3cccnc23)c1,1950 nM
6,CCCCN(C(=O)/C=C/c1ccco1)c1c(N)n(Cc2ccccc2)c(=O)[nH]c1=O,> 15000 nM (inactive)
7,C(=C\c1ccccc1)/CN1CCN(c2ncnc3c2oc2ccccc23)CC1,< 120 nM
8,CCC(=O)N1c2ccc(S(=O)(=O)CCC(=O)N3CCn4c3nc3ccccc34)cc2CC1C (configuration not stated),1120 nM
9,COCCN(C(=O)CSc1nnc(-c2cccc(C)c2)n1C)c1c(N)n(Cc2ccccc2)c(=O)[nH]c1=O,> 16000 nM (inactive)
10,COc1ccc(-c2nc(CN3CCN(c4cc(C)nc(C)c4)CC3)c(C)o2)c2ccccc12,2490 nM
11,O=C(c1cc2c(s1)-c1ccccc1OC2)N1CCC2(CC1)OCCO2,2000 nM
12,Cc1ccc(C2C3=C(CC(C)(C)CC3=O)N=C3c4ccccc4C(=O)C32)cc1 (configuration not stated),769 nM
13,CCCCC(=O)NC(=S)Nc1cccc(NC(=O)c2ccco2)c1,1220 nM
14,S=c1nc[nH]c2c1cnn2Cc1ccccc1,2330 nM
15,C=CCNC(=S)N/N=C(\C)c1ccccn1,2300 nM
16,COC(=O)C1=NN(C(=O)c2ccc(Cl)cc2)C(O)(c2ccccc2)C1 (configuration not stated),> 16000 nM (inactive)
17,O=C(O)CSc1nc(-c2ccc(Cl)cc2)nc2c1oc1ccccc12,1510 nM
18,OCCN1CCN(C(=S)NC2CCCC2)CC1,> 16000 nM (inactive)
19,CC[n+]1c(/C=C/C=C/c2ccc(N(C)C)cc2)sc2ccccc21,< 120 nM
20,CCN(CC)S(=O)(=O)c1ccc(N/N=C(\C)c2ccc(OC)cc2O)nc1,> 16000 nM (inactive)
21,Cc1nnc(N/N=C/c2ccccn2)[nH]c1=O,2250 nM
22,c1csc(CNc2ncnc3sccc23)c1,1760 nM
23,C[n+]1c2n(c3ccccc31)N=C(c1ccc(-c3ccccc3)cc1)CS2,1880 nM

row,SMILES,EC50
1,O=C(Cc1ccc(Cl)cc1)NNC(=S)NC(=O)c1cccs1,1570 nM
2,Cc1nc2c(=O)oc3ccccc3c2n1-c1ccccc1,2430 nM
3,Cc1ccc2cc(C3C(C#N)=C(N)Oc4c3ccc3cccnc43)c(=O)[nH]c2c1 (configuration not stated),1900 nM
4,COc1cccc(C2/C(=C(/O)c3ccc(C)cc3)C(=O)C(=O)N2Cc2ccco2)c1 (configuration not stated),7030 nM
5,CCCCOc1cccc(C(=O)NNC(=S)NC2CCCCC2)c1,8740 nM
6,COc1cc(/C=C(\C#N)c2nc3ccccc3s2)cc([N+](=O)[O-])c1O,> 15000 nM (inactive)
7,CCNC(=S)NNC(=O)c1cc(-c2ccc(OC)cc2)nc2ccccc12,4380 nM
8,C=CCc1cccc(/C=N/NC(=O)CNc2cccc3ccccc23)c1O,3110 nM
9,O=S(=O)(O)c1cc(O)c2c(O)c(N=Nc3cc(Cl)ccc3O)c(S(=O)(=O)O)cc2c1,7520 nM
10,Nc1ccc(C(=O)N/N=C\c2ccc(OC(=O)c3ccccc3Cl)cc2)cc1,431 nM
11,NS(=O)(=O)c1cccc(NC(=S)NCc2ccc3c(c2)OCO3)c1,> 16000 nM (inactive)
12,CCOC(=O)Cc1csc(NC(=O)CSc2nnc(-c3ccncc3)o2)n1,< 120 nM
13,Nc1nonc1-n1nnc(C(=O)N/N=C/c2cc(Br)ccc2O)c1CSC1=NCCS1,359 nM
14,COc1ccccc1OCC(=O)N/N=C/C=C/c1ccc([N+](=O)[O-])o1,1220 nM
15,CN1/C(=C/C(=O)c2cccs2)Sc2ccccc21,841 nM
16,O=C(NNC(=S)Nc1ccc(Cl)cc1)c1ccccc1OC(F)F,2600 nM
17,Cc1cc(/C=N/n2c(COc3ccccc3C)nc3ccccc3c2=O)c(O)c([N+](=O)[O-])c1,1620 nM
18,O=c1cc(-c2ccccc2)c2ccc(O)cc2o1,3530 nM
19,COCCSc1nnc(NC(=O)CCS(=O)(=O)c2ccccc2)s1,1860 nM
20,N/C(Cc1ccc(Cl)c(Cl)c1)=N\OC(=O)c1cccs1,893 nM
